Results from US6576657B2, “Amidino derivatives and their use as thrombin inhibitors” (AstraZeneca AB, priority 1997, dated 2003).

Target: T1, Human thrombin (Homo sapiens, UniProt P00734)
T1 construct: conversion of the proenzyme prothrombin to the active enzyme thrombin; purchased Sigma Chem Co T 6769
Assay: Test A: determination of thrombin clotting time (TT)
Type: biochemical
Details: concentration of inhibitor that doubles the thrombin clotting time for human plasma
Description: Determination of Thrombin Clotting Time (TT)
The inhibitor solution (25 μL) was incubated with plasma (25 μL) for three minutes. Human thrombin (T 6769; Sigma Chem Co) in buffer solution, pH 7.4 (25 μL) was then added and the clotting time measured in an automatic device (KC 10; Amelung).
The clotting time in seconds was plotted against the inhibitor concentration, and the IC50TT was determined by interpolation.
IC50TT is the concentration of inhibitor in the test that doubles the thrombin clotting time for human plasma.

| SMILES | IC50 [nM] |
| --- | --- |
| COc1ccc2c(c1)C(O)(C(=O)N1CCC1C(=O)N(C)Cc1ccc(C(=N)N)cc1)CCC2 (single isomer, unassigned) [Example 37, (S)- or (R)-1-Hydroxy-7-methoxytetralin-1-yl-C(O)-Aze-N(Me)-Bzl-4-C(NH2)NH×HOAc] | < 300 |
| N=C(N)c1ccc(CNC(=O)[C@@H]2CCN2C(=O)C2(O)c3ccccc3-c3ccccc32)cc1 [Example 38, 9-Hydroxyfluoren-9-yl-C(O)-Aze-Pab×HOAc] | < 300 |
